Laboratory results as given in patent publication US20130149269A1, “NOVEL MALODOR COUNTERACTANT” (priority 2011, published 2013).

Legend:
[1] = Mold/mildew malodor counteracting test, trained sensory panel (LMS rating); settings: for Malodor Intensity / % MOR: mold/mildew malodor; for Malodor Intensity: mean LMS 0-100, 24 hours equilibration; for % MOR: relative to Malodor Alone
Description: (§1) Establishment of Malodor Models: A number of malodorous chemicals have been identified, which are associated with different types of malodors. Commercial samples of these chemicals (commercially available at Sigma-Aldrich Inc.) were thus used in the present invention as malodorous model compounds to assess the effectiveness of methyl 3-methyl cyclohexane carboxylate in counteracting malodors.
(§2) A model of bathroom malodor was established using a solution of isovaleric acid (“IVA”) in diethyl phthalate (“DEP”) (10% by weight). A model of sweat malodor was established using a solution of 3-methyl-2-hexanoic acid in DEP (5% by weight). A model of mold/mildew malodors was established using a solution of 2-ethyl-1-hexanol in DEP (20% by weight). A model of smoke malodor was established by applying a solution of 3-acetyl pyridine in DEP (5% by weight) onto a piece of cloth.
(§3) Preparation of Test Samples: Methyl 3-methyl cyclohexane carboxylate was prepared at a series of concentrations, ranging from 0.1% to 5% in DEP, with corresponding vapor phase concentrations ranging from about 4 μg to about 0.2 mg per liter of air space.
(§4) A malodor material as established above (1 g) and a solution of methyl 3-methyl cyclohexane carboxylate in DEP (1 g) were pipetted into separate aluminum weighing dishes located at the bottom of a 32 oz. jar (1 L). For negative control samples (Malodor Alone), the malodor material (0.5 g) was pipetted into each of the two dishes located at the bottom of jar. Jars were then capped and the samples were allowed to equilibrate for 24 hours before testing.
(§5) Testing Procedure: Test samples were presented in a blind and pseudorandom order to a group of trained panelists (consisting of 12-17 females with a mean age of 40 years). The panelists were instructed to take the following steps: i) sniff malodor reference jars for familiarization prior to each testing session; ii) uncap a jar; iii) place their noses at a distance of about 3-4 inches above the opening; iv) take short sniffs for about 2-3 seconds; and v) enter a rating of overall intensity and malodor intensity on a handheld computer.
(§6) The overall and malodor intensity was rated using the Labeled Magnitude Scale (LMS) [Green, et al., Chemical Senses, 21(3), June 1996, 323-334]. Mean (“Malodor Intensity”) and standard error of the mean (“SE”, ±) were obtained, where 0 represents “No Sensation” and 100 represents “The Strongest Imaginable Malodor Sensation”. Percent malodor reduction (“% MOR”) represents the perceived reduction in mean malodor intensity of the sample containing the malodor in the presence of methyl 3-methyl cyclohexane carboxylate relative to the negative control (Malodor Alone).

[2] = Smoke malodor counteracting test, trained sensory panel (LMS rating); settings: for Malodor Intensity / % MOR: smoke malodor; for Malodor Intensity: mean LMS 0-100, 24 hours equilibration; for % MOR: relative to Malodor Alone
Description: as §1, §2, §3, §4, §5, §6

[3] = Bathroom malodor counteracting test, trained sensory panel (LMS rating); settings: for Malodor Intensity / % MOR: bathroom malodor; for Malodor Intensity: mean LMS 0-100, 24 hours equilibration; for % MOR: relative to Malodor Alone
Description: as §1, §2, §3, §4, §5, §6

[4] = Sweat malodor counteracting test, trained sensory panel (LMS rating); settings: for Malodor Intensity / % MOR: sweat malodor; for Malodor Intensity: mean LMS 0-100, 24 hours equilibration; for % MOR: relative to Malodor Alone
Description: as §1, §2, §3, §4, §5, §6

[5] = overall conclusion, 0.1% to 5% in DEP

COC(=O)C1CCCC(C)C1 (stereo not drawn) [Methyl 3-Methyl Cyclohexane Carboxylate, methyl 3-methyl cyclohexane carboxylate]
Malodor Intensity ([1]; 0.1% in DEP, 4 μg/L): 9.88 | % MOR ([1]; 0.1% in DEP, 4 μg/L): 40.01% | Malodor Intensity ([1]; 0.5% in DEP, 21 μg/L): 5.44 | % MOR ([1]; 0.5% in DEP, 21 μg/L): 69.56% | Malodor Intensity ([1]; 1% in DEP, 42 μg/L): 4.44 | % MOR ([1]; 1% in DEP, 42 μg/L): 76.51% | Malodor Intensity ([1]; 5% in DEP, 208 μg/L): 3.34 | % MOR ([1]; 5% in DEP, 208 μg/L): 83.07% | counteracting the mold/mildew malodor (result in words) [1, 5]: effective | counteracting the smoke malodor (result in words) [2, 5]: effective | Malodor Intensity ([2]; 0.1% in DEP, 4 μg/L): 10.02 | % MOR ([2]; 0.1% in DEP, 4 μg/L): 51.95% | Malodor Intensity ([2]; 0.5% in DEP, 21 μg/L): 7.23 | % MOR ([2]; 0.5% in DEP, 21 μg/L): 66.04% | Malodor Intensity ([2]; 1% in DEP, 42 μg/L): 4.78 | % MOR ([2]; 1% in DEP, 42 μg/L): 77.57% | Malodor Intensity ([2]; 5% in DEP, 208 μg/L): 4.23 | % MOR ([2]; 5% in DEP, 208 μg/L): 80.07% | Malodor Intensity ([3]; 0.1% in DEP, 4 μg/L): 8.65 | % MOR ([3]; 0.1% in DEP, 4 μg/L): 56.93% | Malodor Intensity ([3]; 0.5% in DEP, 21 μg/L): 5.44 | % MOR ([3]; 0.5% in DEP, 21 μg/L): 66.47% | Malodor Intensity ([3]; 1% in DEP, 42 μg/L): 2.69 | % MOR ([3]; 1% in DEP, 42 μg/L): 86.11% | Malodor Intensity ([3]; 5% in DEP, 208 μg/L): 1.71 | % MOR ([3]; 5% in DEP, 208 μg/L): 90.86% | counteracting the bathroom malodor (result in words) [3, 5]: effective | counteracting the sweat malodor (result in words) [4, 5]: effective | Malodor Intensity ([4]; 0.1% in DEP, 4 μg/L): 4.48 | % MOR ([4]; 0.1% in DEP, 4 μg/L): 77.92% | Malodor Intensity ([4]; 0.5% in DEP, 21 μg/L): 5.12 | % MOR ([4]; 0.5% in DEP, 21 μg/L): 72.63% | Malodor Intensity ([4]; 1% in DEP, 42 μg/L): 5.42 | % MOR ([4]; 1% in DEP, 42 μg/L): 73.14% | Malodor Intensity ([4]; 5% in DEP, 208 μg/L): 3.55 | % MOR ([4]; 5% in DEP, 208 μg/L): 81.47%
